The values that follow come from patent US20130131174A1, “INJECTABLE PHARMACEUTICAL FORMULATION OF MELPHALAN” (ERIOCHEM, priority 2010, published 2013).

Molecules are shown by their SMILES. Where “and” joins values, the source holds several entries; their conditions need not be identical. Equal values may be shown once.

Series [1] is described as follows: Stability at 25° C. of melphalan solution at 10 mg/ml in glacial acetic acid, purity by HPLC. The class given is physicochemical. How it is done: To study stability at 25° C. of a melphalan solution at 10 mg/ml in glacial acetic acid in the absence of hydrochloric acid, 830 mg base melphalan Lot 20-01-2010 were used and the results of the following table were obtained. This solution is not comprised in the present invention, it is only introduced with the aim of comparing this option without hydrochloric acid presenting higher concentration of impurities than the composition of lyophilized melphalan on the invention.

A short description of series [2]: Purity by HPLC of melphalan lyophilizates vs. their API (degradation on lyophilization). How it is done: Purity determinations of melphalan in its different compositions were analyzed by HPLC applying the method Pharmaeuropa, Vol 21, No. 3, July 2009, pages 425-28, for the following examples:
Simultaneously, the melphalan solution was filtered and measured in doses to 10 mg/ml in glacial acetic acid with 3 moles of hydrochloric acid from hydrochloric acid at 37% w/we, which used base melphalan Lot 20-01-2010, in 5 ml vials of the tube flask type, 20 mm mouth, containing 2 ml solution, and it was lyophilized in a Virtis Advantage Lyophilizer, freezing at −50° C. for 5 hours, starting vacuum at the same temperature, then bringing the shelf to −20° C., then to 0° C. and finally drying at 5° C., with a final vacuum of 25 microbars.
Simultaneously, the melphalan solution was filtered and measured in doses to 10 mg/ml in glacial acetic acid, which used base melphalan Lot 20-01-2010, in 5 ml vials of the tube flask type, 20 mm mouth, containing 2 ml solution, and it was lyophilized in a Virtis Advantage Lyophilizer, freezing at −50° C. for 5 hours, starting vacuum at the same temperature, then bringing the shelf to −20° C., then to 0° C. and finally drying at 25° C., with a final vacuum of 25 microbars.

The nature of series [3]: Solubility of melphalan in pharmaceutical organic solvents. Type of series: physicochemical. Conditions: for Solubility in DMSO: hydrochlorate prepared by addition of three moles of hydrochloric acid at 37%. On the procedure:
To investigate the possibility of elaborating malphalan lyophilizates from pharmaceutical organic solvents, it was determined that base melphalan as well as its hydrochlorate are not soluble in terbutylic alcohol. Instead, even though base malphalan is not soluble in DMSO, its hydrochlorate is soluble up to close to 10% p/v, prepared by the addition of three moles of hydrochloric acid as a concentrated acid at 37%.
Base melphalan is soluble in glacial acetic acid, preferably free of acetic anhydride, in up to close to 10% p/v; likewise as melphalan hydrochlorate, mixtures of acetic acid and aqueous solution of hydrochloric acid at 37% p/p to dissolve base melphalan may also be used, or else hydrogen chloride solution in glacial acetic acid.

A short description of series [4]: pH of lyophilized melphalan after reconstitution, dilution in normal saline solution and neutralization with trisodium citrate. The class given is physicochemical. Conditions: 5 mg/ml of melphalan hydrochlorate with 2.5 molecules of hydrogen chloride per melphalan mol. On the procedure:
A vial containing the solid composition of lyophilized melphalan was reconstituted with 3.2 ml of normal saline solution, producing a melphalan solution at 5.40 mg/ml of pH 1.80. An aliquot of 0.8 ml was taken and added with another of 4.2 ml of normal saline solution, producing 0.86 mg/ml of pH 2.33. It was neutralized with 0.20 ml of a solution of 100 mg/ml of trisodium citrate dihydrate, producing a final pH 5.44.
A vial containing the solid composition of lyophilized melphalan was reconstituted with 3.2 ml of normal saline solution, producing a melphalan solution at 6.84 mg/ml of pH 2.20. An aliquot of 0.8 ml was taken and added with another of 4.2 ml of normal saline solution, producing 1.09 mg/ml of pH 2.20. It was neutralized with 0.20 ml of a solution of 100 mg/ml of trisodium citrate dihydrate, producing a final pH of 5.59.

For series [5] the following is noted: cited from earlier work.
[6] abbreviates: API before dissolution, listed as API.
Setting [7] is: API or lyophilizate, listed as API.
The mark [8] stands for this setting: API or lyophilizate, listed as API-Mel 143-09.

For the compound `N[C@@H](Cc1ccc(N(CCCl)CCCl)cc1)C(=O)O` [Melphalan, p-(bis-2-chloroethyl)-amino-L-phenylalanine], in series [1] (API before dissolution), the “Impurity C” value is 0.02 % of area, the “Impurity D” value is recorded as 0.09 % of area, the “Impurity F” value is listed as 0.05 % of area and the “Impurity G” value is recorded as 2.05 % of area. Besides, in series [1] (API before dissolution), the “Impurity I” value is 0.03 % of area, the “Impurity J” value was 0.11 % of area, the “Melphalan Purity” value was 97.45 % of area and the “Total of Impurities” value is on record as 2.55 % of area. Further, in series [1] (setting [6]), the “Max. Imp. Disposab” value is 0.02 (TRR 0.81) % of area and 0.04 % of area; the “Other Imp. Disposab” value was 0.04 (TRR 1.58) % of area and 0.02 % of area. For the same compound, the “Stability in solution of 10 mg/ml in acetic acid by HPLC” value in series [1] (hours in solution at ambient temperature / 25° C.) is “perfectly stable”. In series [2] (API or lyophilizate), the “Impurity C” value is on record as less than 0.05 % w/w, the “Impurity F” value is less than 0.05 % w/w and the “Impurity I” value is on record as less than 0.05 % w/w. In series [2] (setting [7]), the “Impurity D” value is 0.05% w/w and <0.05 % w/w; the “Impurity G” value was 1.04% w/w and 0.97% w/w; the “Impurity J” value was 0.05% w/w and <0.05 % w/w; the “Máx. Imp. Dispos” value is 0.05% w/w and 0.07% w/w. Moreover, the “Total of Impurities” value in series [2] (setting [7]) was 1.19% w/w and 1.04% w/w. In addition, in series [2] (setting [8]), the “Impurity D” value was 0.1 % w/w, the “Impurity G” value came out at 0.9 % w/w, the “Máx. Imp. Dispos” value is listed as 0.1 % w/w and the “Total of Impurities” value came out at 1.2 % w/w. Besides, in series [2] (from acetic acid with three moles of hydrochloric acid per mol), the “Degradation of the API on non-aqueous lyophilization” value is recorded as “lower than 0.2 % in area”. Besides, the “Solubility in terbutylic alcohol” value in series [3] was “not soluble”. Also, the “Solubility in DMSO” value in series [3] (listed as base malphalan) was “not soluble”. For the same compound, the “Solubility in glacial acetic acid” value in series [3] (preferably free of acetic anhydride) is given as roughly 10 % p/v.
Consider `N[C@@H](Cc1ccc(N(CCCl)CCCl)cc1)C(=O)O` [melphalan hydrochlorate], for which, in series [4], the “pH of an aqueous solution” value is listed as “approximately 1.9”. Further, the “Solubility in DMSO” value in series [3] (listed as its hydrochlorate) is roughly 10 % p/v.
Consider `CC(O)CO` (stereo not shown) [propylene glycol], for which the Half plasma life in series [5] (individuals with normal renal function) is 5 h. In addition, the Excreted by kidneys in series [5] (rest metabolized by the liver) is 12-45%.
